Data: patent publication US4065453A, “Levorotatory molindone and the use as an antidepressant” (Endo Laboratories, Inc., priority 1976, dated 1977)

Columns and labels:
[1] = Tetrabenazine Antagonism (Anti-TBZ); type: in vivo, mouse (Carworth CF1 S female mice); conditions: for ED50: po, 1 h, mouse, p.o., tetrabenazine 32 mg/kg i.p. 30 min after compound
Description: Groups of 10 Carworth CF1 S female mice, 18-21 g each, were fasted 1.5 hours and were incubated with antagonist compounds at oral doses of 0, 5, 25, and 125 mg/kg or 0, 1, 3, 9, 27, and 81 mg/kg in 0.20 ml of 1% Methocel. The mice were challenged 30 minutes later with tetrabenazine (as the methanesulfonate), 32 mg/kg intraperitoneally (dissolved in 0.20 ml 0.05M KCl at pH 2.0). One hour after antagonist (30 minutes after tetrabenzaine), the mice were examined for signs of exploratory activity and ptosis (eyelid closure). Normal exploratory activity (relief from sedation) was recorded when a mouse lifted by the tail from a group of 10 in a testing box and placed on a stainless steel testing box lid (12.5 × 8 inches with 0.33 inch mesh) either turned its head horizontally 30° in both directions or moved to the edge of the screen within 10 seconds after being placed on the screen. Relief from ptosis was recorded when exactly two seconds after placing the mouse facing the observer, lid closure was less than 50% in both eyes.
The ED50 's for the compound of the present invention and for the molindone racemic mixture are given in the following table, along with certain appropriate ratios: […]

[2] = Rat Conditioned Avoidance Response (rat CAR); type: in vivo; conditions: for ED50: po, rat, p.o., block of conditioned avoidance response in 50% of rats, tested 1, 2 and 4 hours after dosing, column 4
Description: Blocking of CAR in rats at nontoxic doses correlates with major tranquilizer activity in man. Rats are trained to jump out of a pit onto a ledge to avoid shock when presented with a conditioned stimulus of light and sound. Three or four doses of durg are given to a group of 4-8 rats. The animals are tested 1, 2 and 4 hours after dosing. A quantal ED50 is calculated as the dose which would block the CAR in 50% of the rats. The results are given in mg/kg., p.o. (Table 1) The ED50 's for the compound of the present invention and for the molindone racemic mixture are given in the following table, along with certain appropriate ratios: […]

Exploratory Loss = type: in vivo, mouse; conditions: for ED50: po, mouse, p.o., loss of exploratory activity, column 3, read-out: ED50 mouse EXPL. LOSS
Excerpt: The mouse is placed on a stainless steel wire mesh screen (8 × 12 inches, 3 mesh per inch, 1/4inch mesh openings) "shoe-box" lid (1inch high) and is observed for normal activities, such as nose movements, head movements with apparent visual examination of the area, and/or walking around on the screen. Normal mice respond within 2 to 3 seconds. Absence of or a marked depression of these activities for 5 seconds constitutes a loss of exploratory activity. The ED50 's for the compound of the present invention and for the molindone racemic mixture are given in the following table, along with certain appropriate ratios: […]

[3] = relief from ptosis, column 1, read-out: ED50 mouse ANTI-TBZ ptosis
[4] = relief from sedation (exploratory activity), column 2, read-out: ED50 mouse ANTI-TBZ expl. loss

Row | SMILES | ED50 [1, 3] | ED50 [1, 4] | ED50 [2] | ED50 (Exploratory Loss) | antidepressant activity compared with the racemate ([1]; in words) | tranquilizer activity compared with the racemate ([2]; in words) | separation of the antidepressant activity from the sedative activity (Exploratory Loss; as compared with the racemate, from the ratios in the table, in words) | sedative activity compared with the racemate (Exploratory Loss; in words)
1 | CCc1c(C)[nH]c2c1C(=O)C(CN1CCOCC1)CC2 (racemic) [(±)-molindone, 3-ethyl-6,7-dihydro-2-methyl-5(morpholinomethyl)indol-4(5H)-one, reference compound] | 7.2 mg/kg | 9 mg/kg | 28 mg/kg | 38 mg/kg |  |  |  | 
2 | CCc1c(C)[nH]c2c1C(=O)C(CN1CCOCC1)CC2 (single isomer, unassigned; (-)) [(-)-molindone] | 2.7 mg/kg | 3.4 mg/kg | 21 mg/kg | 25 mg/kg | significantly greater antidepressant activity | approximately the same sedative and tranquilizer activity as the racemate | clear separation of the antidepressant activity from the sedative activity | approximately the same sedative and tranquilizer activity as the racemate
